Five compounds from patent US9221833B2, “Antiviral compounds” (GILEAD PHARMASSET LLC, priority 2011, dated 2015) can be followed below.

Holding throughout (type): cell-based, HCV
Assay [1] relates to genotype 2a J6 strain NS5A gene (M31 present). Nature of the assay: Replicon assay, NS5A chimeric 2a JFH-1 replicon with 2a J6 NS5A, transient (t) or stable (s), Huh-Lunet cells. Conditions: Hepatitis C virus. The procedure: (§1) Evaluation of cell-based anti-HCV activity: Antiviral potency (EC50) was determined using a Renilla luciferase (RLuc)-based HCV replicon reporter assay. […] To perform the assay for genotype 2a (with M31 present in NS5A) or 2b, NS5A chimeric genotype 2a JFH-1 replicons that encodes a RLuc-Neo reporter and either genotype 2a J6 strain NS5A gene or genotype 2b MD2b-1 strain NS5A gene (both with M31 present) respectively, were either transiently transfected (t) into Huh-Lunet cells or were established as stably replicating replicon cells (s) is provided. Either cells were dispensed into 384-well plates for EC50 assays. To perform the assay for genotype 3 and 4, NS5A chimeric genotype 1b Con1 replicons that encodes a Pi-RLuc reporter and either genotype 3a S52 strain NS5A gene or genotype 4a ED43 strain NS5A gene respectively, were transiently transfected (t) into Huh-Lunet cells, which were subsequently dispensed into 384-well plates. Compounds were dissolved in DMSO at a concentration of 10 mM and diluted in DMSO either manually or using an automated pipeting instrument. Serially 3-fold diluted compounds were either manually mixed with cell culture media and added to the seeded cells or directly added to the cells using an automated instrument. […] 72 hours later, cells were lysed and Renilla luciferase activity quantified as recommended by the manufacturer (Promega-Madison, Wis.). Non-linear regression was performed to calculate EC50 values.

A further assay relates to Q30R in genotype 1a NS5A. Nature of the assay: Antiviral potency against resistance mutant, 1a Pi-Rluc replicon in Huh-7-derived cured-51 cells. Particulars: Hepatitis C virus. Here is the method: as §1
To determine the antiviral potency (EC50) against resistance mutants, resistance mutations, including M28T, Q30R, Q30H, L31M, and Y93C in genotype 1a NS5A and Y93H in genotype 1b NS5A, were introduced individually into either 1a Pi-Rluc or 1b Pi-Rluc replicons by site directed mutagenesis. Replicon RNA of each resistant mutant was transiently transfected into Huh-7-derived cured-51 cells and antiviral potency was determined on these transfected cells as described above.
In general terms: In antiviral work, replicon cells carry a viral genome segment that copies itself.

In assay [2] the test system is genotype 3a S52 strain NS5A gene. Nature of the assay: Replicon assay, NS5A chimeric 1b Con1 replicon with 3a NS5A, transiently transfected Huh-Lunet cells. Particulars: Hepatitis C virus. Here is the method:
as §1

The test system of assay [3] is genotype 4a ED43 strain NS5A gene. Nature of the assay: Replicon assay, NS5A chimeric 1b Con1 replicon with 4a NS5A, transiently transfected Huh-Lunet cells. Particulars: Hepatitis C virus. The procedure:
as §1, with “[…],” for “were transiently transfected (t) into Huh-Lunet cells,”

Assay [4] concerns genotype 2b MD2b-1 strain NS5A gene (M31 present). As to the kind of experiment: microbe, parasite or virus in culture. Conditions: Hepatitis C virus. Here is the method: as §1
Assay [5] concerns genotype 2a JFH-1 replicon (L31 present in NS5A). As to the kind of experiment: microbe, parasite or virus in culture. Particulars: Hepatitis C virus, read-out: 2a JFH (nM). The procedure:
as §1

For another assay, the system named is genotype 1a H77 replicon. As to the kind of experiment: microbe, parasite or virus in culture. Conditions: Hepatitis C virus. The procedure: as §1
Assay [6] concerns genotype 2a JFH-1 replicon (L31 present in NS5A). Nature of the assay: microbe, parasite or virus in culture. Conditions: Hepatitis C virus, read-out: 2a JFH.
Assay [7] has as its system genotype 1b Con1 replicon. Nature of the assay: microbe, parasite or virus in culture. Conditions: Hepatitis C virus, read-out: 1b (nM). The procedure: as §1

Where two headings read alike, the source gives them in different places.

For `COC(=O)N[C@H](C(=O)N1CCC[C@H]1c1nc2c(ccc3cc4c(cc32)OCc2cc(-c3cnc([C@@H]5CCCN5C(=O)[C@H](NC(=O)OC)c5ccccc5)[nH]3)ccc2-4)[nH]1)C(C)C` [Example MD], the EC50 is below 1 nM in assay [1] (read-out: 2a J6); below 1 nM with Q30R in genotype 1a NS5A (read-out: 1a Q30R); below 1 nM in [2] (read-out: 3a); 0.006 nM in assay [2] (read-out: 3a (nM)); below 1 nM in assay [3] (read-out: 4a); below 1 nM in assay [4] (read-out: 2b). Besides, the EC50 was 0.006 nM in [5], below 1 nM in the assay on genotype 1a H77 replicon (read-out: 1a) and below 1 nM in assay [6].
On to `CCC(C)[C@H](NC(=O)OC)C(=O)N1C[C@@H](C)CC1c1ncc(-c2ccc3c(c2)COc2cc4c(ccc5nc([C@@H]6C[C@H](COC)CN6C(=O)[C@@H](NC(=O)OC)C(C)OC)[nH]c54)cc2-3)[nH]1` (stereo in doubt) [Example QD, Methyl {(2S,3R)-1-[(2S,4S)-2-(5-{2-[(2S,4S)-1-[N-(methoxycarbonyl)-O-methyl-L-allothreonyl]-4-(methoxymethyl)pyrrolidin-2-yl]-1,11-dihydroisochromeno[4′,3′:6,7]naphtho[1,2-d]imidazol-9-yl}-1H-imidazol-2-yl)-4-methylpyrrolidin-1-yl]-3-methyl-1-oxopentan-2-yl}carbamate], for which the EC50 in assay [1] (read-out: 2a J6) is below 1 nM; in [7], 0.03 nM; in [4] (read-out: 2b), below 1 nM; with genotype 1a H77 replicon (read-out: 1a) it was below 1 nM; in assay [6], below 1 nM.
Regarding `COC(=O)NC(C(=O)N1CCCC1c1nc2ccc3cc4c(cc3c2[nH]1)OCc1cc(-c2cnc(C3CCCN3C(=O)C(NC(=O)O)C(C)C)[nH]2)ccc1-4)c1ccccc1` (centres unmarked) [Example LQ, [1-(2-{5-[2-(1-{[(Methoxycarbonyl)amino](phenyl)acetyl}pyrrolidin-2-yl)-1,11-dihydroisochromeno[4′,3′:6,7]naphtho[1,2-d]imidazol-9-yl]-1H-imidazol-2-yl}pyrrolidin-1-yl)-3-methyl-1-oxobutan-2-yl]carbamic acid], the EC50 is below 1 nM in [1] (read-out: 2a J6); 0.543 nM in assay [1] (read-out: 2a J6 (s) (nM)); 0.134 nM in [1] (read-out: 2a J6 (t) (nM)); below 1 nM with Q30R in genotype 1a NS5A (read-out: 1a Q30R); 0.135 nM with Q30R in genotype 1a NS5A (read-out: 1a Q30R (nM)); below 1 nM in assay [2] (read-out: 3a). Moreover, the EC50 in assay [2] (read-out: 3a (nM)) is 0.005 nM; in assay [3] (read-out: 4a) it was below 1 nM; in [3] (read-out: 4a (s) (nM)), 0.02 nM; in [3] (read-out: 4a (t) (nM)), 0.008 nM; in assay [7], 0.02 nM; in assay [4] (read-out: 2b) it was below 1 nM. Moreover, the EC50 was 0.035 nM in assay [4] (read-out: 2b (s) (nM)); 0.012 nM in assay [4] (read-out: 2b (t) (nM)); 0.004 nM in assay [5]; below 1 nM with genotype 1a H77 replicon (read-out: 1a); 0.022 nM in the assay on genotype 1a H77 replicon (read-out: 1a (nM)); below 1 nM in assay [6].
For `COC[C@H]1C[C@@H](c2ncc(-c3ccc4c(c3)COc3cc5c(ccc6nc([C@@H]7CCCN7C(=O)[C@H](NC(=O)OC)c7ccccc7)[nH]c65)cc3-4)[nH]2)N(C(=O)[C@@H](NC(=O)OC)C(C)C)C1` [Example PH, methyl {(2S)-1-[(2S,4S)-2-(5-{2-[(2S)-1-{(2R)-2-[(methoxycarbonyl)amino]-2-phenylacetyl}pyrrolidin-2-yl]-1,11-dihydroisochromeno[4′,3′:6,7]naphtho[1,2-d]imidazol-9-yl}-1H-imidazol-2-yl)-4-(methoxymethyl)pyrrolidin-1-yl]-3-methyl-1-oxobutan-2-yl}carbamate], the EC50 in [1] (read-out: 2a J6) was below 1 nM; in [1] (read-out: 2a J6 (t) (nM)), 0.055 nM; with Q30R in genotype 1a NS5A (read-out: 1a Q30R), below 1 nM; with Q30R in genotype 1a NS5A (read-out: 1a Q30R (nM)), 0.051 nM; in assay [2] (read-out: 3a), below 1 nM; in [2] (read-out: 3a (nM)) it was 0.029 nM. Also, the EC50 in [4] (read-out: 2b) is below 1 nM; in assay [4] (read-out: 2b (t) (nM)), 0.042 nM; in assay [5], 0.014 nM; in the assay with genotype 1a H77 replicon (read-out: 1a) it was below 1 nM; in the assay on genotype 1a H77 replicon (read-out: 1a (nM)), 0.024 nM; in assay [6], below 1 nM.
Turning to `COC[C@H]1C[C@@H](c2nc3ccc4cc5c(cc4c3[nH]2)OCc2cc(-c3cnc([C@@H]4C[C@H]6C[C@H]6N4C(=O)[C@@H](NC(=O)OC)[C@@H](C)OC)[nH]3)ccc2-5)N(C(=O)[C@H](NC(=O)OC)c2ccccc2)C1` [Example MX], the EC50 is below 1 nM in assay [1] (read-out: 2a J6); 0.035 nM in assay [1] (read-out: 2a J6 (t) (nM)); below 1 nM in assay [3] (read-out: 4a); 0.033 nM in [3] (read-out: 4a (s) (nM)); 0.076 nM in assay [7]; below 1 nM in [4] (read-out: 2b). The EC50 in assay [4] (read-out: 2b (s) (nM)) was 0.139 nM; in assay [4] (read-out: 2b (t) (nM)) it was 0.07 nM; in assay [5], 0.024 nM; in the assay with genotype 1a H77 replicon (read-out: 1a) it was below 1 nM; with genotype 1a H77 replicon (read-out: 1a (nM)) it was 0.036 nM; in assay [6] it was below 1 nM.
